The values below come from patent publication US10329289B2, “6,7-dihydro-5H-pyrrolo[3,4-B]pyridin-5-one allosteric modulators of the M4 muscarinic acetylcholine receptor” (Merck Sharp & Dohme Corp., priority 2015, dated 2019).

The target in this experiment is T1, human M4 muscarinic acetylcholine receptor (Homo sapiens, UniProt P08173).
T1 construct: expressed in transfected cells; host or cells: CHO-K1
T1 sequence (P08173 1-479): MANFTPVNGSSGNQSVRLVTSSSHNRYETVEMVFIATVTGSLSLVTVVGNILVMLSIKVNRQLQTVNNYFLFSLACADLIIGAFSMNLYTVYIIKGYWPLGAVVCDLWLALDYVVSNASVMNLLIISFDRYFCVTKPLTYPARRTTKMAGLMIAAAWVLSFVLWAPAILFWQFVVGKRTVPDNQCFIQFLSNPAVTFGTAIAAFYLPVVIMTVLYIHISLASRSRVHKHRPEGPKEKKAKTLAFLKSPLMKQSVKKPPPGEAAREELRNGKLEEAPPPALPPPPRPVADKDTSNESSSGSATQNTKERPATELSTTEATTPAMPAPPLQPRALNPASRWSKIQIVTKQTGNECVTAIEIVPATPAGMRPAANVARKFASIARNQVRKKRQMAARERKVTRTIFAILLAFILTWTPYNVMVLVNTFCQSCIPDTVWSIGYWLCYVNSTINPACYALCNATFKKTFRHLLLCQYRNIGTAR
Put plainly: human FLIPR-based M4 PAM assay (Ca2+ mobilization, CHO-K1 cells with human M4 receptor and Gαqi5). Type of experiment: cell-based. As to conditions: acetylcholine at 20% of maximum response, read-out: M4 PAM IP. The procedure, abridged: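 CHO-K1 cells stably expressing human M4 and chimeric Gαqi5 were dye-loaded ~1 h at 37 °C and read for Ca2+ fluorescence. Compound followed by acetylcholine at an EC20 (sometimes an EC70 third addition); inflection point from a 4-parameter logistic fit.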
Background: A change in cytosolic calcium serves as a functional read-out for many receptors and channels.
`Cc1c(N2CC[C@@H](OCC3(C)CC3)[C@H](F)C2)nc2c(c1C)C(=O)NC2` [Example 174A, 2-((3R,4R)-3-fluoro-4-((1-methylcyclopropyl)meth-oxy)piperidin-1-yl)-3,4-dimethyl-6,7-dihydro-5H-pyrrolo[3,4-b]pyridin-5-one]: the EC50 is 22 nM. To `Cc1cc2c(nc1N1CCC(OCc3ncco3)CC1)CNC2=O` [Example 183, 3-methyl-2-(4-(oxazol-2-ylmethoxy)piperidin-1-yl)-6,7-dihydro-5H-pyrrolo[3,4-b]pyridin-5-one] belongs 4780 nM. To `Cc1c(N2CCC(Oc3ccc4c(c3)C[C@@H](O)C4)CC2)nc2c(c1C)C(=O)N(CCO)C2` [Example 264E, (S)-2-(4-((2-hydroxy-2,3-dihydro-1H-inden-5-yl)oxy)piperidin-1-yl)-6-(2-hydroxyethyl)-3,4-dimethyl-6,7-dihydro-5H-pyrrolo[3,4-b]pyridin-5-one] belongs 125 nM; to `Cc1cc2c(nc1N1CCC(Oc3ccc4c(c3)CCNC4)CC1)CNC2=O` [Example 144, 3-Methyl-2-(4-((1,2,3,4-tetrahydroisoquinolin-6-yl)oxy)piperidin-1-yl)-6,7-dihydro-5H-pyrrolo[3,4-b]pyridin-5-one], 316 nM; to `Cc1cc2c(nc1N1CCC(Oc3ccc4c(c3)COC4)CC1)[C@H](CO)N(C)C2=O` [Example 282, (R)-2-(4-((1,3-dihydro-2-benzofuran-5-yl)oxy)piperidin-1-yl)-7-(hydroxymethyl)-3,6-dimethyl-6,7-dihydro-5H-pyrrolo[3,4-b]pyridin-5-one], 623 nM. Take `COc1ccc(OC2CCN(c3nc4c(cc3C)C(=O)N(CC(N)=O)C4)CC2)cn1` [Example 310, 2-(2-(4-((6-methoxypyridin-3-yl)oxy)piperidin-1-yl)-3-methyl-5-oxo-5,7-dihydro-6H-pyrrolo[3,4-b]pyridin-6-yl)acetamide]: the EC50 was found to be 101 nM. Then `Cc1cc2c(nc1N1CCC(OCC3CCCCC3)CC1)CNC2=O` [Example 191, 2-(4-(cyclohexylmethoxy)piperidin-1-yl)-3-methyl-6,7-dihydro-5H-pyrrolo[3,4-b]pyridin-5-one], with 492 nM. Then `COCCOc1ccc(O[C@H]2CCN(c3nc4c(cc3C)C(=O)NC4)C[C@H]2F)cn1` (stereo in doubt) [Example 61, 2-((3R,4S)-3-fluoro-4-((6-(2-methoxyethoxy)pyridin-3-yl)oxy)piperidin-1-yl)-3-methyl-6,7-dihydro-5H-pyrrolo[3,4-b]pyridin-5-one], with 135 nM; and `CCc1cc2c(nc1N1CC[C@@H](Oc3cnc4c(c3)COC4)[C@H](F)C1)CNC2=O` [Example 213A, 2-((3R,4R)-4-((5,7-dihydrofuro[3,4-b]pyridin-3-yl)oxy)-3-fluoropiperidin-1-yl)-3-ethyl-6,7-dihydro-5H-pyrrolo[3,4-b]pyridin-5-one], with 126 nM; and `COC(=O)Cn1ncc2cc(OC3CCN(c4nc5c(cc4C)C(=O)NC5)CC3)ccc21` [Example 211, methyl 2-(5-((1-(3-methyl-5-oxo-6,7-dihydro-5H-pyrrolo[3,4-b]pyridin-2-yl)piperidin-4-yl)oxy)-1H-indazol-1-yl)acetate], with 216 nM. To `Cc1cc2c(nc1N1CCC(Oc3ccc4c(c3)C[S+]([O-])C4)CC1)CNC2=O` (single isomer, unassigned) [Example 168B] belongs 166 nM. For the molecule `CCn1cc(OC2CCN(c3nc4c(cc3C)C(=O)NC4)CC2)cn1` [Example 169A, 2-(4-((1-ethyl-1H-pyrazol-4-yl)oxy)piperidin-1-yl)-3-methyl-6,7-dihydro-5H-pyrrolo[3,4-b]pyridin-5-one], the EC50 was 180 nM.

Regarding `COc1ccc(O[C@@H]2CCN(c3nc4c(cc3C)C(=O)NC4)C[C@H]2F)cn1` [Example 30, 2-((3R,4R)-3-fluoro-4-((6-methoxypyridin-3-yl)oxy)piperidin-1-yl)-3-methyl-6,7-dihydro-5H-pyrrolo[3,4-b]pyridin-5-one], the EC50 stood at 25 nM.
